This is an account of results in patent US11919874B2, “Bisphenol derivatives and their use as androgen receptor activity modulators” (The University of British Columbia, priority 2016, dated 2024).

Data set [1] has as its target T1, androgen receptor (Homo sapiens, UniProt P10275, T878A).
T1 construct: endogenous in cells; host or cells: LNCaP
T1 sequence (P10275 1-920 T878A): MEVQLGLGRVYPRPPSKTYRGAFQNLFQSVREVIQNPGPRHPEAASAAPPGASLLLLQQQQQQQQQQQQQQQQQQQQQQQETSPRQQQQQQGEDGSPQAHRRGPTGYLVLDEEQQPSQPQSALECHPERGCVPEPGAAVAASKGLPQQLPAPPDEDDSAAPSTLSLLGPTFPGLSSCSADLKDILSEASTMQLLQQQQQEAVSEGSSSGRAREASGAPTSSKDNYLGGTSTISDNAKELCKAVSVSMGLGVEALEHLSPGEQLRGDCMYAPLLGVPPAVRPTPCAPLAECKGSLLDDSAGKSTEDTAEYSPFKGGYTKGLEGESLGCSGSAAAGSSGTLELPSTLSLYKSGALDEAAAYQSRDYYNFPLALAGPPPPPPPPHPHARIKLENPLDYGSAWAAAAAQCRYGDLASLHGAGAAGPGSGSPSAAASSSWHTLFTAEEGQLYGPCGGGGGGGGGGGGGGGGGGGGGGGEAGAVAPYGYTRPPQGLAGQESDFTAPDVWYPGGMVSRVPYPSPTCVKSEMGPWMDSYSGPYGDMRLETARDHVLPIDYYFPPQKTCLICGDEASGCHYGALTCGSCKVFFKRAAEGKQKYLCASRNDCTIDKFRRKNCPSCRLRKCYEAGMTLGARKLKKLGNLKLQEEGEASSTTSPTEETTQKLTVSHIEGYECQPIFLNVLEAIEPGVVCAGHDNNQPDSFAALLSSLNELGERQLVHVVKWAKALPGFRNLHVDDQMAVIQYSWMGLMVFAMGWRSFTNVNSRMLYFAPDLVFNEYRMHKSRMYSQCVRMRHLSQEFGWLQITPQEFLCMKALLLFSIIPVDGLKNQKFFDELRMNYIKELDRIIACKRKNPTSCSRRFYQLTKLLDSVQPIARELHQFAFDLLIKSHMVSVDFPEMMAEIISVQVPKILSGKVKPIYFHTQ
Kind of data set: PSA (6.1 kb)-luciferase reporter assay in LNCaP cells induced with R1881. It is filed as cell-based. To be noted: R1881 1 nM, 48 h, mean with standard error. As for the experimental part: LNCaP cells (3×10^4) were seeded into 24-well plates overnight. […] Luciferase activities were measured and normalized to protein concentration determined by the Bradford assay. IC50 calculations were done using OriginPro 8.1 Software (Northampton, MA, USA). Transfection experiments to determine IC50 values were performed in at least 4 independent experiments (“trials”) using triplicate wells.
(In a reporter assay the amount or activity of a reporter protein is the signal.)

Data set [2] has as its system LNCaP xenografts. Briefly: LNCaP xenograft model in castrated NOD-SCID mice, tumor volume. The data set is classed as in vivo. As for the experimental part: LNCaP Cell Preparation: LNCaP cells were passaged prior to seeding in T175flasks at a concentration of ˜2-3×10^7/mL. The cells were grown for 7 days until 90% confluent. Cell preparations were then prepared in RPMI with 5% FBS/Matrigel (50/50, v/v) yielding a final concentration of 1×10^8/mL.
Tumor Induction and Treatment: Six to eight week old NOD-SCID mice were received from BC Cancer Research Centre's Animal Resource Centre and acclimated for 28 days. Tumors were initiated with […]. Tumors were allowed to grow to an average size of approximately 100 mm^3. Mice were then castrated and the tumors allowed to adapt for a period of one week before first dose was administered. Tumor volume was measured as length×width×height in mm multiplied by 0.5236.
Compound Preparation and Treatment: Compound 1a was dissolved in 100% DMSO (ATCC Lot 61908420) to yield a stock solution of 157 mg/mL. Compound 1a was administered as an oral gavage once per day at dose levels of 10 and 30 mg/kg. Vehicle control animals were administered 1% CMC formulation as an oral gavage once daily. […]
Oral treatment was initiated one week after castration. […] Two days after the last dose, the tumours were measured and harvested. Body weight was assessed daily throughout the treatment period. Tumor volume was measured on day −7 (castration day), and again on days 1, 4, 8, 12, 16, 20, 24 and 26.

The test system of data set [3] is PSA mRNA. Briefly: PSA mRNA in LNCaP xenografts by QPCR. The data set is classed as in vivo, mice. The source says: Quantitative Real-Time Polymerase Chain Reaction (QPCR) Method: LNCaP xenografts were homogenized using TRIzol® reagent (Invitrogen™), and total RNA was extracted using PureLink RNA Mini Kit (Life Technologies). Amplification Grade DNase I treatment (Sigma-Aldrich) was applied to the RNA before RT-PCR using High Capacity RNA-to-DNA kit (Life Technologies) to generate cDNA. cDNA and gene-specific primers were combined with Platinum® SYBR® Green qPCRSuperMix-UDG with ROX (Invitrogen™). Transcripts were measured by quantitative real-time PCR (QPCR) using ABI PRISM 7900 Sequence Detection System (ABI PRISM®, Applied Biosystems by Life Technologies) in triplicates for each biological sample. Gene expression levels were normalized to housekeeping gene RPL13A. Primers for PSA have been previously described (Andersen R. J., et al. Cancer Cell. 2010; Myung J. K., et al. J. Clin. Invest. 2013).
In FIG. 6, bars represent mean±SEM with n=5 representative tumors from each treatment group. One-way ANOVA post-hoc Tukey's multiple comparisons test was performed for statistical analysis. *p<0.05; **p<0.01; ***p<0.001.

Data set [4] is described as follows: Body weight in LNCaP xenograft model. It is filed as in vivo, mice. The note with it: daily oral 10 or 30 mg/kg, start vs day 26, vs CMC control. As for the experimental part: Compound Preparation and Treatment: Compound 1a was dissolved in 100% DMSO (ATCC Lot 61908420) to yield a stock solution of 157 mg/mL. Compound 1a was administered as an oral gavage once per day at dose levels of 10 and 30 mg/kg. Vehicle control animals were administered 1% CMC formulation as an oral gavage once daily. CMC (n=17 tumours); 10 mg/kg (n=15 tumours); 30 mg/kg (n=14 tumours). CMC (n=9 animals); 10 mg/kg (n=9 animals); 30 mg/kg (n=9 animals).
Oral treatment was initiated one week after castration. The start of treatment was designated “Day 1” and animals were treated once daily for a total of 24 doses. Two days after the last dose, the tumours were measured and harvested. Body weight was assessed daily throughout the treatment period. Tumor volume was measured on day −7 (castration day), and again on days 1, 4, 8, 12, 16, 20, 24 and 26.

On to `CC(=O)OC[C@H](COc1ccc(C(C)(C)c2ccc(OC[C@@H](CCl)OC(C)=O)cc2)cc1)OC(C)=O` [B, reference compound], for which the IC50 – broadly, the midpoint of a concentration-inhibition curve – in data set [1] stood at 10700 ± 1040 nM. The same measure, in the same setting: to `CC(C)(c1ccc(OC[C@H](O)CO)cc1)c1ccc(OC[C@H](O)CCl)c(Cl)c1` [C, reference compound] belongs 2470 ± 260 nM. For the molecule `CC(C)(c1ccc(OC[C@H](O)CO)cc1)c1cc(Cl)c(OC[C@H](O)CCl)c(Cl)c1` [Compound 1a, (R)-3-(4-(2-(3,5-dichloro-4-((S)-3-chloro-2-hydroxypropoxy)phenyl)propan-2-yl)phenoxy)propane-1,2-diol], in data set [2] (daily oral 10 mg/kg or 30 mg/kg, castrated NOD-SCID mice, day 26, vs CMC control), the “tumor growth / tumor volume at the end of the treatment period” value was “inhibition of tumor growth and significant reduction of tumor volume”. In addition, in data set [2] (daily oral, 10 mg/kg vs 30 mg/kg), the “difference in tumor volumes between the 10 mg/kg and 30 mg/kg doses” value is given as “no statistical difference in the tumor volumes”. In data set [1], the midpoint of inhibition, the IC50, lay at 1410 ± 270 nM. Besides, the “mRNA expression of PSA in tumors” value in data set [3] (30 mg/kg oral daily, compared to the 10 mg/kg dose and control treatment) is on record as “significant reduction of PSA expression”; in data set [3] (10 and 30 mg/kg oral daily, QPCR normalized to RPL13A, n=5 tumors), “dose-dependent inhibition of the mRNA expression of PSA”. The “start and finish body weights” value in data set [4] is “no significant differences between the start and finish body weights”.

`COC[C@@H](O)COc1ccc(C(C)(C)c2cc(Cl)c(OC[C@H](O)CCl)c(Cl)c2)cc1` [Compound 5a, (S)-1-chloro-3-(2,6-dichloro-4-(2-(4-((R)-2-hydroxy-3-methoxypropoxy)phenyl)propan-2-yl)phenoxy)propan-2-ol] had an IC50 in data set [1] of 1030 ± 390 nM. On the same count and under the same terms, to `CC(C)(c1ccc(OC[C@H](O)Cn2ccnc2)cc1)c1cc(Cl)c(OC[C@H](O)CCl)c(Cl)c1` [Compound 9a, (S)-1-chloro-3-(2,6-dichloro-4-(2-(4-((R)-2-hydroxy-3-(1H-imidazol-1-yl)propoxy)phenyl)propan-2-yl)phenoxy)propan-2-ol] belongs 3120 ± 680 nM; to `CC(C)(c1ccc(OC[C@H](O)CN2CCOCC2)cc1)c1cc(Cl)c(OC[C@H](O)CCl)c(Cl)c1` [Compound 11a, (S)-1-chloro-3-(2,6-dichloro-4-(2-(4-((R)-2-hydroxy-3-morpholinopropoxy)phenyl)propan-2-yl)phenoxy)propan-2-ol], 1050 ± 150 nM; to `CC(C)(c1ccc(OC[C@H](O)CN)cc1)c1cc(Cl)c(OC[C@H](O)CCl)c(Cl)c1` [Compound 12a, (R)-1-amino-3-(4-(2-(3,5-dichloro-4-((S)-3-chloro-2-hydroxypropoxy)phenyl)propan-2-yl)phenoxy)propan-2-ol], 2260 ± 240 nM. The same measure, in the same setting: to `CC(C)(c1ccc(OC[C@H](O)CNS(C)(=O)=O)cc1)c1cc(Cl)c(OC[C@H](O)CCl)c(Cl)c1` [Compound 13a, N-((R)-3-(4-(2-(3,5-dichloro-4-((S)-3-chloro-2-hydroxypropoxy)phenyl)propan-2-yl)phenoxy)-2-hydroxypropyl)methanesulfonamide] belongs 1000 ± 160 nM; to `CCS(=O)(=O)C[C@@H](O)COc1ccc(C(C)(C)c2cc(Cl)c(OC[C@H](O)CCl)c(Cl)c2)cc1` [Compound 14a, (S)-1-chloro-3-(2,6-dichloro-4-(2-(4-((S)-3-(ethylsulfonyl)-2-hydroxypropoxy)phenyl)propan-2-yl)phenoxy)propan-2-ol], 950 ± 210 nM.
